Laboratory results reported in patent US6274594A, “Isoquinoline derivatives and their therapeutical use” (SmithKline Beecham p.l.c., priority 1997, dated 2001).

Key:
[1] = tested on: electrically-induced seizures (maximal electroshock seizure threshold); assay: Maximal electroshock seizure (MEST) threshold test, rat model; format: in vivo; settings: 2 mg/kg p.o., suspension in methyl cellulose, one hour post dosing, statistically significant
Description: The maximal electroshock seizure (MEST) threshold test in rodents is particularly sensitive for detecting potential anticonvulsant properties^1. In this model, anticonvulsant agents elevate the threshold to electrically-induced seizures whilst proconvulsants lower the seizure threshold.
Mice (naive male, Charles River, U.K. CD-1 strain, 25-30 g) are randomly assigned to groups of 10-20 and dosed orally or intraperitoneally at a dose volume of 10 ml/kg with various doses of compound (0.3-300 mg/kg) or vehicle. Mice are then subjected at 30 or 60 min post dose to a single electroshock (0.1 sec, 50 Hz, sine wave form) administered via corneal electrodes. The mean current and standard error required to induce a tonic seizure in 50% (CC50) of the mice in a particular treatment group is determined by the `up and down` method of Dixon and Mood (1948)^2. Statistical comparisons between vehicle- and drug-treated groups are made using the method of Litchfield and Wilcoxon (1949)^3.
The threshold for maximal (tonic hindlimb extension) electroshock seizures in male rats (Sprague Dawley, 80-150 g, 6 weeks old) was determined by a Hugo Sachs Electronik stimulator which delivered a constant current (0.3 sec duration; from 1-300 mA in steps of 5-20 mA). […]
The percentage increase or decrease in CC50 for each group compared to the control is calculated. […]

[2] = biological target: novel receptor obtainable from rat forebrain tissue; assay: [3H]-Compound A radioligand binding assay; settings: competition with [3H]-Compound A (usually 20 nM)
Description: WO 92/22293 (SmithKline Beecham) discloses compounds having anti-convulsantactivity, including inter alia the compound trans-(+)-6-acetyl-4S-(4-fluorobenzoylamino)-3,4-dihydro-2,2-dimethyl-2H-1-benzopyran-3R-ol (hereinafter referred to as Compound A). […] The affinity of test compounds to the novel receptor site is assessed as follows.
Whole forebrain tissue is obtained from rats. The tissue is first homogenised in buffer (usually 50 mM Tris/HCl, pH 7.4). The homogenised tissue is washed by centrifugation and resuspension in the same buffer, then stored at -70° C. until used.
To carry out the radioligand binding assay, aliquots of tissue prepared as above (usually at a concentration of 1-2 mg protein/ml) are mixed with aliquots of [3H]-Compound A dissolved in buffer. The final concentration of [3H]-Compound A in the mixture is usually 20 nM. The mixture is incubated at room temperature for 1 hour. [3H]-Compound A bound to the tissue is then separated from unbound [3H]-Compound A by filtration through Whatman GF/B glass fibre filters. The filters are then washed rapidly with ice-cold buffer. The amount of radioactivity bound to the tissue trapped on the filters is measured by addition of liquid scintillation cocktail to the filters followed by counting in a liquid scintillation counter. […]

CN1CCc2ccc(NC(=O)N3CCc4ccccc43)cc2C1 [Example 1, 2,3-Dihydroindole-1-carboxylic Acid (2-methyl-1,2,3,4-tetrahydroisoquinolin-7-yl)amide]
increase in seizure threshold (CC50) compared to control [1]: 225%
pKi value [2]: greater than 8
